From patent US8952024B2, “Herbicidal pyrimidone derivatives” (E I du Pont de Nemours and Company, priority 2009, dated 2015)
Like-named read-outs stand apart in the source and are kept apart here.

Tests used:
Assay type in all cases: in vivo
[1] = tested on: umbrella sedge (Cyperus difformis); assay: Test B flooded paddy test; settings: Cyperus difformis, 360 h
How it was run: (§1)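 2-leaf seedlings; pots flooded 3 cm over soil at treatment; cpd dosed into floodwater, depth kept constant. Greenhouse 13–15 d. Visual rating vs untreated controls, 0 = no effect, 100 = complete control.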

[2] = tested on: barnyardgrass (Echinochloa crus-galli); assay: Test B flooded paddy test; settings: Echinochloa crus-galli, 360 h
How it was run: as §1

[3] = tested on: ducksalad (Heteranthera limosa); assay: Test B flooded paddy test; settings: Heteranthera limosa, 360 h
How it was run: as §1

rice (Oryza sativa) = assay: Test B flooded paddy test; settings: Oryza sativa
How it was run: as §1

corn (Zea mays) = assay: Test B pre-/postemergence plant response; settings: for Corn plant response rating (crop injury, 0 = no effect, 100 = complete kill) at 31 g/ha: 31 g ai/ha, scale 0 to 100 (0 no effect, 100 complete control)
Excerpt: (§2) Seeds of plant species selected from blackgrass (Alopecurus myosuroides), downy bromegrass (Bromus tectorum), green foxtail (Setaria viridis), Italian ryegrass (Lolium multiflorum), wheat (Triticum aestivum), wild oat (Avena fatua), deadnettle (henbit deadnettle, Lamium amplexicaule), galium (catchweed bedstraw, Galium aparine), bermudagrass (Cynodon dactylon), Surinam grass (Brachiaria decumbens), cocklebur (Xanthium strumarium), corn (Zea mays), large crabgrass (Digitaria sanguinalis), woolly cupgrass (Eriochloa villosa), giant foxtail (Setaria faberii), goosegrass (Eleusine indica), johnsongrass (Sorghum halepense), kochia (Kochia scoparia), lambsquarters (Chenopodium album), morningglory (Ipomoea coccinea), nightshade (eastern black nightshade, Solanum ptycanthum), yellow nutsedge (Cyperus esculentus), pigweed (Amaranthus retroflexus), ragweed (common ragweed, Ambrosia elatior), Russian thistle (Salsola kali), soybean (Glycine max), sunflower (common oilseed sunflower, Helianthus annuus) and velvetleaf (Abutilon theophrasti) were planted into a blend of loam soil and sand and treated preemergence with test compounds formulated in a non-phytotoxic solvent mixture which included a surfactant.
(§3) At the same time, plants selected from these crop and weed species and also winter barley (Hordeum vulgare), canarygrass (Phalaris minor), chickweed (Stellaria media) and windgrass (Apera spica-venti) were planted in pots containing Redi-Earth® planting medium (Scotts Company, 14111 Scottslawn Road, Marysville, Ohio 43041) comprising spaghnum peat moss, vermiculite, wetting agent and starter nutrients and treated with postemergence applications of some of the test chemicals formulated in the same manner. Plants ranged in height from 2 to 18 cm (1- to 4-leaf stage) for postemergence treatments.
(§4) Treated plants and controls were maintained in a greenhouse for 13 to 15 days, after which time all treated plants were visually evaluated and compared to controls. Plant response ratings, summarized in Table B, are based on a scale of 0 to 100 where 0 is no effect and 100 is complete control. A dash (-) response means no test result.

[4] = tested on: ragweed (common ragweed, Ambrosia elatior); assay: Test B pre-/postemergence plant response
Excerpt: as §2, §3, §4

kochia (Kochia scoparia) = assay: Test B pre-/postemergence plant response; settings: Postemergence
Excerpt: as §2, §3, §4

[5] = tested on: johnsongrass (Sorghum halepense); assay: Test B pre-/postemergence plant response
Excerpt: as §2, §3, §4

wild oat (Avena fatua) = assay: Test B pre-/postemergence plant response
Excerpt: as §2, §3, §4

[6] = tested on: lambsquarters (Chenopodium album); assay: Test B pre-/postemergence plant response; settings: Chenopodium album; for pest or weed control at 62 g/ha: 62 g ai/ha
Excerpt: as §2, §3, §4

[7] = Preemergence, 125 g ai/ha, 0 to 100 scale

In the case of Cc1c(F)cccc1-n1c(-c2ccccc2)ncc(C(=O)C2=C(O)CCCC2=O)c1=O [Compound 47, 3-(3-fluoro-2-methylphenyl)-5-[(2-hydroxy-6-oxo-1-cyclohexen-1-yl)carbonyl]-2-phenyl-4(3H)-pyrimidinone], the pest or weed control at 250 g/ha ([1]; 250 g ai/ha, flooded paddy test, visual rating on 0 to 100 scale (0 no effect, 100 complete control) after 13 to 15 days, read-out: Plant response rating, Flood, Sedge, Umbrella) is reported as 85%, the pest or weed control at 62 g/ha ([1]; Flood (flooded paddy test), 62 g ai/ha, scale of 0 to 100 where 0 is no effect and 100 is complete control, 13 to 15 days, read-out: Plant response rating, Sedge, Umbrella) is reported as 70% and the pest or weed control at 250 g/ha ([2]; 250 g ai/ha, flooded paddy test, visual rating on 0 to 100 scale (0 no effect, 100 complete control) after 13 to 15 days, read-out: Plant response rating, Flood, Barnyardgrass) is reported as 20%. It also gave a pest or weed control at 62 g/ha ([2]; Flood (flooded paddy test), 62 g ai/ha, scale of 0 to 100 where 0 is no effect and 100 is complete control, 13 to 15 days, read-out: Plant response rating, Barnyardgrass) of 0%, a pest or weed control at 250 g/ha ([3]; 250 g ai/ha, flooded paddy test, visual rating on 0 to 100 scale (0 no effect, 100 complete control) after 13 to 15 days, read-out: Plant response rating, Flood, Ducksalad) of 95% and a pest or weed control at 62 g/ha ([3]; Flood (flooded paddy test), 62 g ai/ha, scale of 0 to 100 where 0 is no effect and 100 is complete control, 13 to 15 days, read-out: Plant response rating, Ducksalad) of 65%. The plant injury at 250 g/ha (rice (Oryza sativa); 250 g ai/ha, flooded paddy test, visual rating on 0 to 100 scale (0 no effect, 100 complete control) after 13 to 15 days, read-out: Plant response rating, Flood, Rice) was 25%, the plant injury at 62 g/ha (rice (Oryza sativa); Flood (flooded paddy test), 62 g ai/ha, scale of 0 to 100 where 0 is no effect and 100 is complete control, 13 to 15 days, read-out: Plant response rating, Rice) was 15% and the “Corn plant response rating” value (corn (Zea mays); [7]) was 0. For the same compound, the Corn plant response rating (crop injury, 0 = no effect, 100 = complete kill) at 31 g/ha (corn (Zea mays); Zea mays, post-emergence, Postemergence) was 65%, the Corn plant response rating (crop injury, 0 = no effect, 100 = complete kill) at 125 g/ha (corn (Zea mays); Zea mays, post-emergence, Postemergence, 125 g ai/ha, visual rating after 13 to 15 days, scale 0 (no effect) to 100 (complete control)) was 80% and the Corn plant response rating (crop injury, 0 = no effect, 100 = complete kill) at 250 g/ha (corn (Zea mays); Zea mays, pre-emergence, 250 g ai/ha, Preemergence, 0 to 100 scale) was 0%. The Corn plant response rating (crop injury, 0 = no effect, 100 = complete kill) at 31 g/ha (corn (Zea mays); Zea mays, pre-emergence, Preemergence) was 0%, the Corn plant response rating (crop injury, 0 = no effect, 100 = complete kill) at 62 g/ha (corn (Zea mays); Zea mays, pre-emergence, Preemergence, 62 g ai/ha, scale 0 to 100, 0 no effect, 100 complete control) was 0% and the pest or weed control at 62 g/ha ([4]; Ambrosia artemisiifolia, post-emergence, 360 h, Postemergence, 62 g ai/ha, scale 0 (no effect) to 100 (complete control), 13 to 15 days, read-out: Plant response rating, Ragweed) was 90%. It also gave a pest or weed control at 125 g/ha ([4]; Ambrosia artemisiifolia, post-emergence, 360 h, Postemergence, 125 g ai/ha, visual rating after 13 to 15 days, scale 0 (no effect) to 100 (complete control)) of 95%, a pest or weed control at 250 g/ha ([4]; Ambrosia artemisiifolia, pre-emergence, 360 h, 250 g ai/ha, Preemergence, 0 to 100 scale, read-out: Plant response rating, Ragweed) of 95% and a pest or weed control at 31 g/ha ([4]; Ambrosia artemisiifolia, pre-emergence, 360 h, Preemergence, 31 g ai/ha, scale 0 to 100 (0 no effect, 100 complete control), read-out: Plant response rating, Ragweed) of 45%. The “Ragweed plant response rating” value [4, 7] was 90, the pest or weed control at 62 g/ha (kochia (Kochia scoparia); Bassia scoparia, post-emergence, 62 g ai/ha, scale 0 (no effect) to 100 (complete control), 13 to 15 days, read-out: Plant response rating, Kochia) was 95% and the pest or weed control at 125 g/ha (kochia (Kochia scoparia); Bassia scoparia, post-emergence, 125 g ai/ha, visual rating after 13 to 15 days, scale 0 (no effect) to 100 (complete control)) was 98%. For the same compound, the “Kochia plant response rating” value (kochia (Kochia scoparia); 250 g ai/ha, scale 0 to 100) was 100, the “Johnsongrass plant response rating” value [5, 7] was 80 and the pest or weed control at 125 g/ha ([5]; Sorghum halepense, post-emergence, Postemergence, 125 g ai/ha, visual rating after 13 to 15 days, scale 0 (no effect) to 100 (complete control)) was 98%. It also gave a pest or weed control at 250 g/ha ([5]; Sorghum halepense, pre-emergence, 250 g ai/ha, Preemergence, 0 to 100 scale, read-out: Plant response rating, Johnsongrass) of 100%, a pest or weed control at 31 g/ha ([5]; Sorghum halepense, pre-emergence, Preemergence, 31 g ai/ha, scale 0 to 100 (0 no effect, 100 complete control), read-out: Plant response rating, Johnsongrass) of 65% and a pest or weed control at 62 g/ha ([5]; Sorghum halepense, pre-emergence, Preemergence, 62 g ai/ha, scale 0 to 100, 0 no effect, 100 complete control, read-out: Plant response rating, Johnsongrass) of 75%. It also gave a pest or weed control at 62 g/ha (wild oat (Avena fatua); Avena fatua, post-emergence, Postemergence, 62 g ai/ha, scale 0 (no effect) to 100 (complete control), 13 to 15 days, read-out: Plant response rating, Oat, Wild) of 60%, a pest or weed control at 125 g/ha (wild oat (Avena fatua); Avena fatua, post-emergence, Postemergence, 125 g ai/ha, visual rating after 13 to 15 days, scale 0 (no effect) to 100 (complete control)) of 60% and a pest or weed control at 250 g/ha (wild oat (Avena fatua); Avena fatua, pre-emergence, 250 g ai/ha, Preemergence, 0 to 100 scale, read-out: Plant response rating, Oat, Wild) of 10%. The pest or weed control at 31 g/ha (wild oat (Avena fatua); Avena fatua, pre-emergence, Preemergence, 31 g ai/ha, scale 0 to 100 (0 no effect, 100 complete control), read-out: Plant response rating, Oat, Wild) was 0%, the “Oat, Wild plant response rating” value (wild oat (Avena fatua); [7]) was 0 and the pest or weed control at 62 g/ha ([6]; post-emergence, Postemergence, scale 0 (no effect) to 100 (complete control), 13 to 15 days, read-out: Plant response rating, Lambsquarters) was 98%. The pest or weed control at 125 g/ha ([6]; post-emergence, Postemergence, 125 g ai/ha, visual rating after 13 to 15 days, scale 0 (no effect) to 100 (complete control)) was 98%, the pest or weed control at 250 g/ha ([6]; pre-emergence, 250 g ai/ha, Preemergence, 0 to 100 scale, read-out: Plant response rating, Lambsquarters) was 100% and the pest or weed control at 31 g/ha ([6]; pre-emergence, Preemergence, 31 g ai/ha, scale 0 to 100 (0 no effect, 100 complete control), read-out: Plant response rating, Lambsquarters) was 100%. For the same compound, the pest or weed control at 62 g/ha ([6]; pre-emergence, Preemergence, scale 0 to 100, 0 no effect, 100 complete control, read-out: Plant response rating, Lambsquarters) was 100%.
